Assay results as given in ChEMBL document CHEMBL3046842, “Antimicrobial and insect antifeedant activities of some Trogers bases” (2012).
Calls of active or inactive are those of the source. Unless noted, no cut-off for these calls is given here.

What was measured:
Achaea janata [1] = test: Antifeedant activity against fourth instar larvae of Achaea janata fed on compound treated castor leaves at 200 ppm after 24 hrs by leaf disc method; format: functional, organism-based
Escherichia coli = test: Antibacterial activity against Escherichia coli at 250 ug/ml after 24 to 45 hrs by disc diffusion method; format: functional; conditions: read-out: IZ
Achaea janata [2] = test: Antifeedant activity against fourth instar larvae of Achaea janata fed on compound treated castor leaves at 150 ppm after 24 hrs by leaf disc method; format: functional, organism-based
Candida albicans = test: Antifungal activity against Candida albicans at 250 ug/ml after 72 hrs by disc diffusion method; format: functional
Klebsiella pneumoniae = test: Antibacterial activity against Klebsiella pneumoniae at 250 ug/ml after 24 to 45 hrs by disc diffusion method; format: functional; conditions: read-out: IZ
Aspergillus niger = test: Antifungal activity against Aspergillus niger at 50 ug/ml after 72 hrs by disc diffusion method; format: functional, organism-based
Penicillium = test: Antifungal activity against Penicillium at 50 ug/ml after 72 hrs by disc diffusion method; format: functional, organism-based
Pseudomonas = test: Antibacterial activity against Pseudomonas at 250 ug/ml after 24 to 45 hrs by disc diffusion method; format: functional; conditions: read-out: IZ
Staphylococcus aureus = test: Antibacterial activity against Staphylococcus aureus at 250 ug/ml after 24 to 45 hrs by disc diffusion method; format: functional; conditions: read-out: IZ
Proteus vulgaris = test: Antibacterial activity against Proteus vulgaris at 250 ug/ml after 24 to 45 hrs by disc diffusion method; format: functional; conditions: read-out: IZ
Enterococcus faecalis = test: Antibacterial activity against Enterococcus faecalis at 250 ug/ml after 24 to 45 hrs by disc diffusion method; format: functional

Row | Structure (SMILES) | Activity (Achaea janata [1]) | zone of inhibition at 250 µg/mL (Escherichia coli) [mm] | Activity (Achaea janata [2]) | Activity (Candida albicans) | zone of inhibition at 250 µg/mL (Klebsiella pneumoniae) [mm] | Activity (Aspergillus niger) | Activity (Penicillium) | zone of inhibition at 250 µg/mL (Pseudomonas) [mm] | zone of inhibition at 250 µg/mL (Staphylococcus aureus) [mm] | zone of inhibition at 250 µg/mL (Proteus vulgaris) [mm] | Activity (Enterococcus faecalis) | zone of inhibition at 250 µg/mL (Candida albicans; read-out: IZ) [mm]
1 | FC(F)(F)c1ccc2c(c1)CN1CN2Cc2cc(C(F)(F)F)ccc21 | Active | 13 | Active | inactive | 13 | inactive | inactive | 13 | 13 | 13 | inactive | 
2 | Fc1cc2c(cc1Cl)N1Cc3cc(F)c(Cl)cc3N(C2)C1 | Active | 13 | Active |  | 13 | inactive | Active | 13 | 13 | 13 | inactive | 13
